Measurements reported in patent US20110301146A1 (ONCOTHERAPY SCIENCE, INC., priority 2008, published 2011).

Biological target: T1, GSK-3beta (Homo sapiens, UniProt P49841)
T1 construct: purchased Invitrogen
Assay: Z'-LYTE kinase assay (FRET, SER/THR 9 peptide)
Format: biochemical
Details: 0.04 ng/micro-l GSK-3beta (Invitrogen), 2 micro-M SER/THR 9 peptide, 15 micro-M ATP, 1 hour at room temperature, 1% DMSO
Experimental: The Z′-LYTE kinase assay kit employs a fluorescence resonance energy transfer (FRET) between two fluorophores, coumarin and fluorescein, attached to each end of a substrate peptide.
For 0% phosphorylation control, ATP was omitted from the reaction mixture. For 100% phosphorylation control, SER/THR 9 phosphopeptide was used in place of the SER/THR 9 peptide. Following 1 hour incubation at room temperature, the reaction was stopped by the addition of half assay volume of development solution and further incubated for 1 hour at room temperature. […] The extent of phosphorylation was determined according to the 0% and 100% phosphorylation control samples using the following equation: […]
IC50 values were calculated by nonlinear four parameter fit using SigmaPlot, version 10.0 (Systat Software, Inc.).

T1 sequence (P49841 whole entry): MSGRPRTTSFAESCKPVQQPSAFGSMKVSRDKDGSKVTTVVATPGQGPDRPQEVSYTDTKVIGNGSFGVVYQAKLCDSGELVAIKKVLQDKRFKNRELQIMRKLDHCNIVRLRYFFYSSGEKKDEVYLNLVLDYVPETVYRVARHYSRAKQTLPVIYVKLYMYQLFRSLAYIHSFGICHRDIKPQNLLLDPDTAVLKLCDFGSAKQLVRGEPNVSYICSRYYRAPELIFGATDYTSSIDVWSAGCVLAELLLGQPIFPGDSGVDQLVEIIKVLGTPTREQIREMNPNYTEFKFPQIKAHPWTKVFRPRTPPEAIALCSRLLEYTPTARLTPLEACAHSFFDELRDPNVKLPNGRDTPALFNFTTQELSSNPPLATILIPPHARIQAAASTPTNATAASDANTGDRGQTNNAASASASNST

Structure (SMILES)	IC50 [nM]
O=C(N[C@H]1CCCNC1)c1ccc(O)c2[nH]c(-c3ccc(Br)s3)nc12 [Example 51, (S)-2-(5-bromothiophen-2-yl)-7-hydroxy-N-(piperidin-3-yl)-1H-benzo[d]imidazole-4-carboxamide]	16
O=C(N[C@H]1CCCNC1)c1ccc(O)c2[nH]c(C3CC4CCC3C4)nc12 (stereo partly drawn) [Example 52, 2-(Bicyclo[2.2.1]heptan-2-yl)-7-hydroxy-N-((S)-piperidin-3-yl)-1H-benzo[d]imidazole-4-carboxamide]	150
NC12CC3CC(C1)CC(NC(=O)c1ccc(O)c4[nH]c(C5CC6CCC5C6)nc14)(C3)C2 (centres unmarked) [Example 53]	1900
NC1CCCC(NC(=O)c2ccc(O)c3[nH]c(C4CC5CCC4C5)nc23)C1 (centres unmarked) [Example 55, N-(3-Aminocyclohexyl)-2-(bicyclo[2.2.1]heptan-2-yl)-7-hydroxy-1H-benzo[d]imidazole-4-carboxamide]	250
O=C(N[C@H]1CCCNC1)c1ccc(O)c2[nH]c(-c3ccc(N4CCNCC4)s3)nc12 [Example 57, (S)-7-hydroxy-2-(5-(piperazin-1-yl)thiophen-2-yl)-N-(piperidin-3-yl)-1H-benzo[d]imidazole-4-carboxamide]	38
O=C(NC[C@@H]1CCCNC1)c1ccc(O)c2[nH]c(Cc3cccs3)nc12 [Example 58, (R)-7-hydroxy-N-(piperidin-3-ylmethyl)-2-(thiophen-2-ylmethyl)-1H-benzo[d]imidazole-4-carboxamide]	100
O=C(NC[C@H]1CCCNC1)c1ccc(O)c2[nH]c(Cc3cccs3)nc12 [Example 60, (S)-7-hydroxy-N-(piperidin-3-ylmethyl)-2-(thiophen-2-ylmethyl)-1H-benzo[d]imidazole-4-carboxamide]	160

The remaining compounds from weak to strong by IC50, led by results:

IC50 [nM]	Structure (SMILES)
330	NC12CC3CC(C1)CC(NC(=O)c1ccc(O)c4[nH]c(-c5cccs5)nc14)(C3)C2 [Example 54, 2-(Thiophene-2-yl)-7-hydroxy-N-(adamantate-3-ylamino)-1H-benzo[d]imidazole-4-carboxamide]
240	N[C@H]1CC[C@@H](CNC(=O)c2ccc(O)c3[nH]c(C4CC5CCC4C5)nc23)CC1 (stereo partly drawn) [Example 56, N-{[(cis)-4-Aminocyclohexyl]methyl}-2-(bicyclo[2.2.1]heptan-2-yl)-7-hydroxy-1H-benzo[d]imidazole-4-carboxamide]
170	O=C(N[C@H]1CCCNC1)c1ccc(O)c2[nH]c(Cc3cccs3)nc12 [Example 59, (S)-7-hydroxy-N-(piperidin-3-yl)-2-(thiophen-2-ylmethyl)-1H-benzo[d]imidazole-4-carboxamide]
12	O=C(NC1CCC(C(=O)O)CC1)c1ccc(O)c2[nH]c(-c3cccs3)nc12 (centres unmarked) [Example 72, 4-[7-hydroxy-2-(thiophen-2-yl)-1H-benzo[d]imidazole-4-carboxamido]cyclohexanecarboxylic Acid]
